Data on 23 molecules can be found in US20170239237A1, “PYRROLOQUINOLINE DERIVATIVES AS 5-HT6 ANTAGONISTS, PREPARATION METHOD AND USE THEREOF” (Uniwersytet Jagiellonski, priority 2013, published 2017).

Test [1] concerns the target T1, 5-HT6 receptor (Homo sapiens, UniProt P50406). Nature of the test: Radioligand binding, 5-HT6 ([3H]-LSD displacement).
Another test deals with 5-HT7 receptor (Homo sapiens, UniProt P34969). Briefly: Radioligand binding, 5-HT7 ([3H]-5-CT displacement).
Another test deals with dopamine D2L receptor (Homo sapiens, UniProt P14416). Briefly: Radioligand binding, D2 ([3H]-raclopride displacement).
dopamine D2L receptor, sequence (P14416 whole entry): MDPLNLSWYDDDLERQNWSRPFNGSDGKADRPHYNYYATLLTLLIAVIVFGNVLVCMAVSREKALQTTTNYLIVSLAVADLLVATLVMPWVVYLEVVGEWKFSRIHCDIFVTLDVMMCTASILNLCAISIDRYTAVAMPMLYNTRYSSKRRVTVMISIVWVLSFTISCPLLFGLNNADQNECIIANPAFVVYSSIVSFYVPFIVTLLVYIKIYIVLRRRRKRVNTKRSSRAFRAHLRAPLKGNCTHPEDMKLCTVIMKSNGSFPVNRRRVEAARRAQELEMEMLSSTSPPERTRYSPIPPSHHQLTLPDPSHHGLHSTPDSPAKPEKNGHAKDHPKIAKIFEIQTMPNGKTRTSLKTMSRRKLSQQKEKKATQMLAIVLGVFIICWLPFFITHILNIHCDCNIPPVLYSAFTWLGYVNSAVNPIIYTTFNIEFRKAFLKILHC
For a further test, the target named is T2, 5-HT1A receptor (Homo sapiens, UniProt P08908).
T2 sequence (P08908 1-422): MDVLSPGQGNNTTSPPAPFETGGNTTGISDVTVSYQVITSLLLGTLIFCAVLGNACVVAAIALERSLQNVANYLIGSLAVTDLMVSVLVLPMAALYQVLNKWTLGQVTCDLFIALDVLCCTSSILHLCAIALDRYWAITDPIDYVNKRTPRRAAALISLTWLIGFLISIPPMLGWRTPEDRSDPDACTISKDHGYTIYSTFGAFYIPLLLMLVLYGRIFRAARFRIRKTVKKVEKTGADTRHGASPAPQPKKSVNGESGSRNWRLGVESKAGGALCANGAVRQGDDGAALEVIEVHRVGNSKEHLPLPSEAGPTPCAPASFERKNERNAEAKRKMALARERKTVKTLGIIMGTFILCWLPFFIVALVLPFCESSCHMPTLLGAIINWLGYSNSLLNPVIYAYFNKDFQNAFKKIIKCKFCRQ
Briefly: Radioligand binding, 5-HT1A ([3H]-8-OH-DPAT displacement).

For test [2], the target named is T1, 5-HT6 receptor. Nature of the test: CHO-human-5HT6-Aequorin functional assay (ago-/antagonism). Particulars: test concentration not given; for % inhibition of control agonist response: agonist effect, CHO-human-5HT6-Aequorin cells; for % inhibition of control antagonist response: antagonist effect vs 10^-6 M α-methylserotonin induced luminescence.
[3] abbreviates: read-out: Ki 5-HT6, cloned human receptor in HEK293, three independent experiments, SEM ± 22%.

Read-outs that look alike come from different tables or passages of the source.

T1 sequence (P50406 whole entry): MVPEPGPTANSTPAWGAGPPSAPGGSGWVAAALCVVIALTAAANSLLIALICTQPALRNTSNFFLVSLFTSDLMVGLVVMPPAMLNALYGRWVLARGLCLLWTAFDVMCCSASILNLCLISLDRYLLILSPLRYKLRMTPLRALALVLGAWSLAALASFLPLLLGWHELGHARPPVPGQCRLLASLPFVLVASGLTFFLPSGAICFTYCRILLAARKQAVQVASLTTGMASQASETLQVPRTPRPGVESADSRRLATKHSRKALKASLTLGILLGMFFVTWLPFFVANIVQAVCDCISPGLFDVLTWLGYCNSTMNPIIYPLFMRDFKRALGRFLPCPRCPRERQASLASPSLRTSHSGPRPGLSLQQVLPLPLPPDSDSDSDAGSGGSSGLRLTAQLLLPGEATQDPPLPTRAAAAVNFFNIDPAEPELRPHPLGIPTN
5-HT7 receptor, sequence (P34969 1-432 limits assumed): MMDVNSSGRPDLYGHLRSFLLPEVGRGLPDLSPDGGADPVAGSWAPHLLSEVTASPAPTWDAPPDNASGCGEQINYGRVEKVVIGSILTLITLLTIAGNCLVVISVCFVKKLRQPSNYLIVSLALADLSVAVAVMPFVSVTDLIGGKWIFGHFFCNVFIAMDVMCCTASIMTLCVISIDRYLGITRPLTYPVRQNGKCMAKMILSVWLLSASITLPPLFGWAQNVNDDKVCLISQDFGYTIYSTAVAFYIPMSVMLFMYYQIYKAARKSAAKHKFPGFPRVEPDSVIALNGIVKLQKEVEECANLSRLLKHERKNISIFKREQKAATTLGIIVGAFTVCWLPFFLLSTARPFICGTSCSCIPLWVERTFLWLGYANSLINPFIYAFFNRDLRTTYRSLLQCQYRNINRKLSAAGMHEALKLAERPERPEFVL

For the molecule `CN(C)CCNc1nc2ccccc2c2c1ccn2S(=O)(=O)c1ccccc1` [Compound 1, N1,N1-dimethyl-N2-(1-(phenylsulfonyl)-1H-pyrrolo[3,2-c]quinolin-4-yl)ethane-1,2-diamine], the Ki at 5-HT6 receptor [1] turned out to be 10 nM; at 5-HT7 receptor it was 3970 nM; on dopamine D2L receptor, 2260 nM; at 5-HT1A receptor, 1880 nM.

For `O=S(=O)(c1cccc(Cl)c1)n1ccc2c(NC3CCNC3)nc3ccccc3c21` (stereo not drawn) [Compound 5, 1-((3-chlorophenyl)sulfonyl)-N-(pyrrolidin-3-yl)-1H-pyrrolo[3,2-c]quinolin-4-amine], the Ki at 5-HT7 receptor was determined as 2130 nM; at dopamine D2L receptor, 1440 nM; at 5-HT1A receptor it was 3030 nM.

Turning to `O=S(=O)(c1cccc(F)c1)n1ccc2c(NC3CCNC3)nc3ccccc3c21` (stereo not drawn) [Compound 8, 1-((3-fluorophenyl)sulfonyl)-N-(pyrrolidin-3-yl)-1H-pyrrolo[3,2-c]quinolin-4-amine], the Ki at 5-HT6 receptor [1] amounted to 5 nM; at 5-HT7 receptor, 9590 nM; at dopamine D2L receptor, 900 nM; at 5-HT1A receptor, 3010 nM. In addition, the “% inhibition of control agonist response” value on 5-HT6 receptor [2] was 9.6%. The “% inhibition of control antagonist response” value on 5-HT6 receptor [2] is 80.8%.

On to `O=S(=O)(c1ccc(F)cc1)n1ccc2c(NC3CCNC3)nc3ccccc3c21` (stereo not drawn) [Compound 11, 1-((4-fluorophenyl)sulfonyl)-N-(pyrrolidin-3-yl)-1H-pyrrolo[3,2-c]quinolin-4-amine], for which the inhibition constant Ki at 5-HT6 receptor [1] came to 18 nM; at 5-HT7 receptor, 6880 nM; at dopamine D2L receptor it was 664 nM; on 5-HT1A receptor, 5830 nM. Further, the “% inhibition of control agonist response” value at 5-HT6 receptor [2] was 4.8%. The “% inhibition of control antagonist response” value on 5-HT6 receptor [2] was determined as 51.8%.

Turning to `COc1cccc(S(=O)(=O)n2ccc3c(NC4CCNC4)nc4ccccc4c32)c1` (stereo not drawn) [Compound 13, 1-((3-methoxyphenyl)sulfonyl)-N-(pyrrolidin-3-yl)-1H-pyrrolo[3,2-c]quinolin-4-amine], the Ki was 6 nM at 5-HT6 receptor [1], 4850 nM on 5-HT7 receptor, 513 nM on dopamine D2L receptor and 5190 nM at 5-HT1A receptor. In addition, at 5-HT6 receptor [2], the “% inhibition of control agonist response” value turned out to be 6.5%. Also, the “% inhibition of control antagonist response” value on 5-HT6 receptor [2] is 68.8%.

As to `O=S(=O)(c1cccc(C(F)(F)F)c1)n1ccc2c(NC3CCNC3)nc3ccccc3c21` (stereo not drawn) [Compound 14, 1-((3-(trifluoromethyl)phenyl)sulfonyl)-N-(pyrrolidin-3-yl)-1H-pyrrolo[3,2-c]quinolin-4-amine], the Ki on 5-HT6 receptor [1] was 7 nM; at 5-HT7 receptor it was 3820 nM; on dopamine D2L receptor, 1280 nM. The “% inhibition of control agonist response” value on 5-HT6 receptor [2] amounted to 10.8%. Also, at 5-HT6 receptor [2], the “% inhibition of control antagonist response” value is given as 88.8%.

`Cc1ccc2sc(S(=O)(=O)n3ccc4c(NC5CCNC5)nc5ccccc5c43)cc2c1` (stereo not drawn) [Compound 23, 1-((5-methylbenzo[b]thiophen-2-yl)sulfonyl)-N-(pyrrolidin-3-yl)-1H-pyrrolo[3,2-c]quinolin-4-amine]: the Ki at 5-HT6 receptor [1] stood at 94 nM; at 5-HT7 receptor, 1310 nM; at dopamine D2L receptor it was 1550 nM; on 5-HT1A receptor, 19100 nM.

`O=S(=O)(c1ccccc1Br)n1ccc2c(N3CCNCC3)nc3ccccc3c21` [Compound 28, 1-((2-bromophenyl)sulfonyl)-4-(piperazin-1-yl)-1H-pyrrolo[3,2-c]quinoline]: the Ki came to 3 nM at 5-HT6 receptor [1], 7900 nM on 5-HT7 receptor, 7150 nM on dopamine D2L receptor and 1220 nM at 5-HT1A receptor.

For the molecule `O=S(=O)(c1ccc(F)cc1)n1ccc2c(N3CCNCC3)nc3ccccc3c21` [Compound 31, 1-((4-fluorophenyl)sulfonyl)-4-(piperazin-1-yl)-1H-pyrrolo[3,2-c]quinoline], the Ki on 5-HT6 receptor [1] (setting [3]) came out at 18 nM; on 5-HT7 receptor, 6400 nM; at dopamine D2L receptor, 5940 nM; at 5-HT1A receptor, 214 nM.

On to `O=S(=O)(c1cc(F)ccc1F)n1ccc2c(N3CCNCC3)nc3ccccc3c21` [Compound 32, 1-((2,5-difluorophenyl)sulfonyl)-4-(piperazin-1-yl)-1H-pyrrolo[3,2-c]quinoline], for which the inhibition constant Ki on 5-HT7 receptor amounted to 7690 nM; on dopamine D2L receptor it was 5090 nM; at 5-HT1A receptor, 238 nM.

Turning to `O=S(=O)(c1ccc(F)c(F)c1)n1ccc2c(N3CCNCC3)nc3ccccc3c21` [Compound 33, 1-((3,4-difluorophenyl)sulfonyl)-4-(piperazin-1-yl)-1H-pyrrolo[3,2-c]quinolinee], the Ki at 5-HT7 receptor came out at 5010 nM; on dopamine D2L receptor it was 1780 nM; at 5-HT1A receptor, 311 nM.

For `O=S(=O)(c1ccc(C(F)(F)F)cc1)n1ccc2c(N3CCNCC3)nc3ccccc3c21` [Compound 36, 1-((4-(trifluoromethyl)phenyl)sulfonyl)-4-(piperazin-1-yl)-1H-pyrrolo[3,2-c]quinoline], the Ki is 34 nM at 5-HT6 receptor [1] (setting [3]), 2260 nM on 5-HT7 receptor, 13300 nM on dopamine D2L receptor and 194 nM on 5-HT1A receptor.

Regarding `COc1cccc(S(=O)(=O)n2ccc3c(N4CCNCC4)nc4ccccc4c32)c1` [Compound 37, 1-((3-methoxyphenyl)sulfonyl)-4-(piperazin-1-yl)-1H-pyrrolo[3,2-c]quinoline], the Ki on 5-HT7 receptor came to 5250 nM; on dopamine D2L receptor, 7040 nM; on 5-HT1A receptor it was 372 nM.

On to `Cc1cccc(S(=O)(=O)n2ccc3c(N4CCNCC4)nc4ccccc4c32)c1` [Compound 39, 1-((3-methylphenyl)sulfonyl)-4-(piperazin-1-yl)-1H-pyrrolo[3,2-c]quinoline], for which the Ki at 5-HT7 receptor (read-out: Ki 5-HT7) stood at 4140 nM; on dopamine D2L receptor (read-out: Ki D2, cloned human receptor in HEK293, three independent experiments, SEM ± 22%), 2160 nM; at 5-HT1A receptor (read-out: Ki 5-HT1A, cloned human receptor in HEK293, three independent experiments, SEM ± 22%), 760 nM.

Take `CN1CCN(c2nc3ccccc3c3c2ccn3S(=O)(=O)c2ccccc2)CC1` [Compound 53, 1-(phenylsulfonyl)-4-(4-methylpiperazin-1-yl)-1H-pyrrolo[3,2-c]quinoline]: the Ki on 5-HT7 receptor is 3800 nM; on dopamine D2L receptor it was 342 nM; on 5-HT1A receptor, 127 nM.

Regarding `CN1CCN(c2nc3ccccc3c3c2ccn3S(=O)(=O)c2cccc(Cl)c2)CC1` [Compound 54, 1-((3-chlorophenyl)sulfonyl)-4-(4-methylpiperazin-1-yl)-1H-pyrrolo[3,2-c]quinoline], the Ki amounted to 3490 nM at 5-HT7 receptor, 1260 nM on dopamine D2L receptor and 519 nM on 5-HT1A receptor.

Regarding `CN1CCN(c2nc3ccccc3c3c2ccn3S(=O)(=O)c2cccc(F)c2)CC1` [Compound 55, 1-((3-fluorophenyl)sulfonyl)-4-(4-methylpiperazin-1-yl)-1H-pyrrolo[3,2-c]quinoline], the inhibition constant Ki on 5-HT7 receptor turned out to be 8250 nM; on dopamine D2L receptor it was 894 nM; on 5-HT1A receptor, 640 nM.

For `CN1CCN(c2nc3ccccc3c3c2ccn3S(=O)(=O)c2ccc(N)cc2)CC1` [Compound 57, 1-((4-aminophenyl)sulfonyl)-4-(4-methylpiperazin-1-yl)-1H-pyrrolo[3,2-c]quinoline], at 5-HT6 receptor [2], the “% inhibition of control agonist response” value turned out to be 1.5% and the “% inhibition of control antagonist response” value was found to be 97.3%.

In the case of `O=S(=O)(c1ccccc1)n1ccc2c(N3CCN(Cc4ccccc4)CC3)nc3ccccc3c21` [Compound 60, 1-(phenylsulfonyl)-4-(4-benzylpiperazin-1-yl)-1H-pyrrolo[3,2-c]quinoline], the Ki on 5-HT6 receptor [1] was 220 nM; at 5-HT7 receptor it was 2360 nM; at dopamine D2L receptor it was 415 nM; on 5-HT1A receptor, 33000 nM.

For `O=S(=O)(c1ccc(Cl)s1)n1ccc2c(N3CCN(Cc4ccccc4)CC3)nc3ccccc3c21` [Compound 61, 1-((5-chlorothiophen-2-yl)sulfonyl)-4-(4-benzylpiperazin-1-yl)-1H-pyrrolo[3,2-c]quinoline], the Ki at 5-HT6 receptor [1] turned out to be 93 nM; at 5-HT7 receptor, 16200 nM; on dopamine D2L receptor, 239 nM; at 5-HT1A receptor, 12800 nM.

Turning to `O=S(=O)(c1cccc2cccnc12)n1ccc2c(N3CCN(Cc4ccccc4)CC3)nc3ccccc3c21` [Compound 62, 1-(quinolin-8-ylsulfonyl)-4-(4-benzylpiperazin-1-yl)-1H-pyrrolo[3,2-c]quinoline], the Ki at 5-HT6 receptor [1] came to 66 nM; at 5-HT7 receptor, 5870 nM; at dopamine D2L receptor, 1470 nM; on 5-HT1A receptor, 3520 nM.

As to `O=S(=O)(c1cccc(Cl)c1)n1ccc2c(N3CCCCC3)nc3ccccc3c21` [Compound 76, 1-((3-chlorophenyl)sulfonyl)-4-(piperidin-1-yl)-1H-pyrrolo[3,2-c]quinoline], the Ki came out at 361 nM on 5-HT6 receptor [1], 22300 nM on 5-HT7 receptor and 14500 nM at dopamine D2L receptor. Moreover, the “% inhibition of control agonist response” value on 5-HT6 receptor [2] turned out to be 22.2%. The “% inhibition of control antagonist response” value on 5-HT6 receptor [2] came to 11.6%.

In the case of `O=S(=O)(c1cccc2cccnc12)n1ccc2c(N3CCCCC3)nc3ccccc3c21` [Compound 77, 1-(quinolin-8-ylsulfonyl)-4-(piperidin-1-yl)-1H-pyrrolo[3,2-c]quinoline], the Ki at 5-HT6 receptor [1] was found to be 188 nM; at 5-HT7 receptor it was 27000 nM; at dopamine D2L receptor it was 5830 nM; at 5-HT1A receptor, 85400 nM.

A word on the Ki: it is the dissociation constant of the complex between target and ligand, obtained from inhibition or displacement.
